Where a SMILES comes first, the peptide text is derived from it.
How the values were obtained:
Format in all cases: cell-based
[1] = tested on: P. aeruginosa ATCC27853; assay: MIC, broth dilution, standard strain; settings: broth dilution (CLSI), MHB, 5 × 10^5 CFU/mL, 37 °C, 16–20 h, OD630, repeated at least three times
Description: (§1) The standard strains, including S. aureus ATCC29213 and ATCC25923, E. faecalis ATCC29212, E. coli ATCC25922 and ATCC35218, A. baumannii ATCC19606, K. pneumoniae ATCC700603, and P. aeruginosa ATCC27853, were purchased from the China Center of Type Culture Collection (CCTCC). The clinical strains of the ESKAPE pathogens were isolated from the affiliated hospitals of Hubei University of Medicine. All of them were stored at −80 °C before use. The drug sensitivities of the clinical strains were determined by the Kirby–Bauer test.
(§2) The MICs were determined using the broth dilution method according to the guidelines of the Clinical and Laboratory Standards Institute (CLSI), as described in the previous studies. Briefly, the bacterial cells were incubated in Mueller–Hinton broth (MHB, Oxoid, Basingstoke, UK) at 37 °C and 150 rpm to the mid-growth phase and diluted to achieve a final concentration of 5 × 10^5 colony-forming units per milliliter (CFU/mL). Then, the cells were mixed with each peptide in different concentrations (1, 2, 4, 8, 16, 32, and 64 μg/mL). […] All experiments were repeated at least three times.

[2] = tested on: E. coli ATCC25922; assay: MIC, broth dilution, standard strain; settings: broth dilution (CLSI), MHB, 5 × 10^5 CFU/mL, 37 °C, 16–20 h, OD630, repeated at least three times
Description: as §1, §2

[3] = tested on: S. aureus ATCC29213; assay: MIC, broth dilution, standard strain; settings: broth dilution (CLSI), MHB, 5 × 10^5 CFU/mL, 37 °C, 16–20 h, OD630, repeated at least three times
Description: as §1, §2

[4] = tested on: A. baumannii ATCC19606; assay: MIC, broth dilution, standard strain; settings: broth dilution (CLSI), MHB, 5 × 10^5 CFU/mL, 37 °C, 16–20 h, OD630, repeated at least three times
Description: as §1, §2

[5] = tested on: E. coli ATCC35218; assay: MIC, broth dilution, standard strain; settings: broth dilution (CLSI), MHB, 5 × 10^5 CFU/mL, 37 °C, 16–20 h, OD630, repeated at least three times
Description: as §1, §2

[6] = tested on: E. faecium ATCC29212; assay: MIC, broth dilution, standard strain; settings: broth dilution (CLSI), MHB, 5 × 10^5 CFU/mL, 37 °C, 16–20 h, OD630, repeated at least three times
Description: as §1, §2

[7] = tested on: K. pneumoniae ATCC700603; assay: MIC, broth dilution, standard strain; settings: broth dilution (CLSI), MHB, 5 × 10^5 CFU/mL, 37 °C, 16–20 h, OD630, repeated at least three times
Description: as §1, §2

[8] = tested on: S. aureus ATCC25923; assay: MIC, broth dilution, standard strain; settings: broth dilution (CLSI), MHB, 5 × 10^5 CFU/mL, 37 °C, 16–20 h, OD630, repeated at least three times
Description: as §1, §2

[9] = tested on: human red blood cells (hRBC); assay: Hemolytic activity determination; settings: 2% (v/v) hRBC, 37 °C, 1 h; for curve of hemolysis% vs. peptide concentration (Figure 2): 0–512 μg/mL peptide, compared in words; for Hemolysis% at 256 μg/mL: 256 μg/mL peptide, OD540, 1% Triton X-100 = 100%, average ± standard error of three independent experiments
Description: Figure 2 Hemolytic activities of Ctriporin and its analogs against human red blood cells (hRBC). Hemolytic activities of Ctriporin (solid circle), CM1 (open circle), CM2 (open square), CM3 (upward triangle), CM4 (downward triangle), CM5 (half solid circle), CM6 (half solid square), and CM7 (half solid triangle), were measured against 2% (v/v) human red blood cells. The peptide concentrations are 0, 2, 4, 8, 16, 32, 64, 128, 256, and 512 μg/mL. The cells treated with 1% Triton X-100 were treated as 100% hemolysis. All experiments were repeated three times, and the data shown are the average ± standard error.
The hemolytic activities of the peptides were determined against human red blood cells (hRBCs). As described, sodium citrate-anticoagulated hRBCs were washed three times with 0.9% sodium chloride and diluted to a final concentration of 4% (v/v). Then, an equal volume of hRBC solutions was mixed with an equal volume of each peptide in a series of concentrations (0, 2, 4, 8, 16, 32, 64, 128, 256, and 512 μg/mL). After co-incubation at 37 °C for 1 h, the degree of hemolysis of the peptides was determined by detecting the release of hemoglobin from the damaged hRBCs by measuring the optical density at 540 nm (OD540). hRBCs in 0.9% sodium chloride and 1% Triton X-100 were considered 0% and 100% hemolysis, respectively. The results shown are the average ± standard error of data derived from three independent experiments. The percent hemolysis was calculated according to the following equation [53, 54]:Hemolysis (%) = 100 × (Asample − Ablank)/(Apositive − Ablank)

[10] = tested on: standard ESKAPE strains; settings: broth dilution (CLSI), MHB, 37 °C, 16–20 h; range over all standard strains
Description: The ESKAPE pathogens represent the main threat to public health concerning antimicrobial resistance. Therefore, we first evaluated the antimicrobial activities of Ctriporin and its analogs against the standard ESKAPE strains. The minimum inhibitory concentration (MIC) was chosen as the index for the evaluation of each peptide’s activity. […] Note that the MICs of CM4 and CM7 are 4–32 and 8–32 μg/mL, respectively, indicating the existence of significant bacterial species deviations for the antimicrobial activity of these peptides. In addition, the replacement of specific residues, especially Pro^7, may harm the antimicrobial activities of the peptide.
as §1, §2

[11] = tested on: A. baumannii 19462; assay: MIC, broth dilution, clinical isolate; settings: CRE/MDR clinical isolate; broth dilution (CLSI), MHB, 5 × 10^5 CFU/mL, 37 °C, 16–20 h, OD630
Description: as §1, §2

[12] = tested on: E. coli 2687; assay: MIC, broth dilution, clinical isolate; settings: ESBL clinical isolate; broth dilution (CLSI), MHB, 5 × 10^5 CFU/mL, 37 °C, 16–20 h, OD630
Description: as §1, §2

[13] = tested on: S. epidermidis 6943; assay: MIC, broth dilution, clinical isolate; settings: MRSE clinical isolate; broth dilution (CLSI), MHB, 5 × 10^5 CFU/mL, 37 °C, 16–20 h, OD630
Description: as §1, §2

[14] = tested on: E. faecium 898; assay: MIC, broth dilution, clinical isolate; settings: MDR clinical isolate; broth dilution (CLSI), MHB, 5 × 10^5 CFU/mL, 37 °C, 16–20 h, OD630
Description: as §1, §2

[15] = tested on: A. baumannii 19618; assay: MIC, broth dilution, clinical isolate; settings: CRE/MDR clinical isolate; broth dilution (CLSI), MHB, 5 × 10^5 CFU/mL, 37 °C, 16–20 h, OD630
Description: as §1, §2

[16] = tested on: S. aureus 891; assay: MIC, broth dilution, clinical isolate; settings: MRSA clinical isolate; broth dilution (CLSI), MHB, 5 × 10^5 CFU/mL, 37 °C, 16–20 h, OD630
Description: as §1, §2

[17] = tested on: P. aeruginosa 9014; assay: MIC, broth dilution, clinical isolate; settings: CRE/MDR clinical isolate; broth dilution (CLSI), MHB, 5 × 10^5 CFU/mL, 37 °C, 16–20 h, OD630
Description: as §1, §2

[18] = tested on: S. aureus 9124; assay: MIC, broth dilution, clinical isolate; settings: MRSA clinical isolate; broth dilution (CLSI), MHB, 5 × 10^5 CFU/mL, 37 °C, 16–20 h, OD630
Description: as §1, §2

[19] = tested on: S. capitis 3255; assay: MIC, broth dilution, clinical isolate; settings: MRSC clinical isolate; broth dilution (CLSI), MHB, 5 × 10^5 CFU/mL, 37 °C, 16–20 h, OD630
Description: as §1, §2

[20] = tested on: K. pneumoniae 9126; assay: MIC, broth dilution, clinical isolate; settings: CRE clinical isolate; broth dilution (CLSI), MHB, 5 × 10^5 CFU/mL, 37 °C, 16–20 h, OD630
Description: as §1, §2

[21] = tested on: S. epidermidis 9092; assay: MIC, broth dilution, clinical isolate; settings: MRSE clinical isolate; broth dilution (CLSI), MHB, 5 × 10^5 CFU/mL, 37 °C, 16–20 h, OD630
Description: as §1, §2

[22] = tested on: A. baumannii 19295; assay: MIC, broth dilution, clinical isolate; settings: CRE/MDR clinical isolate; broth dilution (CLSI), MHB, 5 × 10^5 CFU/mL, 37 °C, 16–20 h, OD630
Description: as §1, §2

[23] = tested on: E. coli 2678; assay: MIC, broth dilution, clinical isolate; settings: ESBL clinical isolate; broth dilution (CLSI), MHB, 5 × 10^5 CFU/mL, 37 °C, 16–20 h, OD630
Description: as §1, §2

[24] = tested on: clinical isolates of CRE and multidrug-resistant (MDR) A. baumannii; settings: broth dilution (CLSI), MHB
Description: To further evaluate the antimicrobial potential of CM5 and CM6, the MICs of these two peptides, as well as the parent peptide Ctriporin, were determined against clinical antibiotic-resistant isolates of ESKAPE strains. […] Note that CRE and MDR A. baumannii are listed at the top of the pathogens threatening public health. Compared with the parent peptide Ctriporin, eight to sixteen times improvement in terms of antimicrobial activity was obtained through our peptide design strategy.
as §2

SMILES	MICs [1] [µg/mL]	MICs [2] [µg/mL]	MICs [3] [µg/mL]	MICs [4] [µg/mL]	MICs [5] [µg/mL]	MICs [6] [µg/mL]	MICs [7] [µg/mL]	MICs [8] [µg/mL]	curve of hemolysis% vs. peptide concentration (Figure 2) [9]	Hemolysis% at 256 μg/mL [9] [%]	MICs against the ESKAPE pathogens (range over the standard strains of Table 2) [10] [µg/mL]	MICs [11] [µg/mL]	MICs [12] [µg/mL]	MICs [13] [µg/mL]	MICs [14] [µg/mL]	MICs [15] [µg/mL]	MICs [16] [µg/mL]	MICs [17] [µg/mL]	MICs [18] [µg/mL]	MICs [19] [µg/mL]	also measured
CC[C@H](C)[C@H](NC(=O)[C@H](C)NC(=O)[C@H](CCCCN)NC(=O)[C@@H]1CCCN1C(=O)[C@@H](NC(=O)[C@H](CC(C)C)NC(=O)[C@H](CCCCN)NC(=O)[C@H](Cc1c[nH]c2ccccc12)NC(=O)[C@H](CC(C)C)NC(=O)[C@@H](N)Cc1ccccc1)[C@@H](C)CC)C(=O)N[C@@H](CCCCN)C(=O)N[C@@H](CCCCN)C(=O)N[C@H](C(=O)N[C@@H](CCCCN)C(=O)N[C@@H](CO)C(=O)N[C@@H](CC(C)C)C(=O)N[C@H](C(=O)N[C@@H](CCCCN)C(=O)N[C@@H](CCCCN)C(N)=O)[C@@H](C)CC)C(C)C [CM5] (H-FLWKLIPKAIKKVKSLIKK-NH2)	4	8	4	2	4	8	8	4	decreased dramatically compared with Ctriporin	9.8 ± 0.6	2 to 8	2	8	4	4	2	4	8	8	2	MICs [20]: 16 µg/mL; MICs [21]: 4 µg/mL; MICs [22]: 2 µg/mL; MICs [23]: 8 µg/mL; MIC values against clinical isolates of CRE and MDR A. baumannii [24]: 2 µg/mL
CC[C@H](C)[C@H](NC(=O)[C@H](C)NC(=O)[C@H](CCCCN)NC(=O)[C@@H]1CCCN1C(=O)[C@@H](NC(=O)[C@H](CC(C)C)NC(=O)[C@H](CCCCN)NC(=O)[C@H](Cc1c[nH]c2ccccc12)NC(=O)[C@H](CC(C)C)NC(=O)[C@@H](N)Cc1ccccc1)[C@@H](C)CC)C(=O)N[C@@H](CCCCN)C(=O)N[C@@H](CCCCN)C(=O)N[C@H](C(=O)N[C@@H](CCCCN)C(=O)N[C@@H](CCCCN)C(=O)N[C@@H](CC(C)C)C(=O)N[C@H](C(=O)N[C@@H](CCCCN)C(=O)N[C@@H](CCCCN)C(N)=O)[C@@H](C)CC)C(C)C [CM6] (H-FLWKLIPKAIKKVKKLIKK-NH2)	4	8	8	4	8	8	8	8	decreased dramatically compared with Ctriporin	8.1 ± 1.9	4 to 8	2	8	4	4	2	8	8	8	2	MICs [20]: 16 µg/mL; MICs [21]: 4 µg/mL; MICs [22]: 2 µg/mL; MICs [23]: 8 µg/mL; MIC values against clinical isolates of CRE and MDR A. baumannii [24]: 2 µg/mL

— paper PMC10974533, “Cationicity Enhancement on the Hydrophilic Face of Ctriporin Significantly Reduces Its Hemolytic Activity and Improves the Antimicrobial Activity against Antibiotic-Resistant ESKAPE Pathogens” (Toxins, 2024)
